Assay results taken from ChEMBL document CHEMBL4420062, “Tfpi inhibitors and methods of use” (2013).
pEC50: −log10 of the molar value. Active and inactive are the calls of the source. No cut-off for these calls is given here.

Key:
Callithrix = conditions: Plasma, 10 uM
[1] = target: Tissue factor pathway inhibitor (Homo sapiens) (UniProt P10646); assay: Inhibition of TFPI in human plasma with induced factor-8 deficiency assessed as increase in thrombin generation by measuring FEIBA at 10 uM using thrombin-specific fluorogenic substrate Z-Gly-Gly-Arg-AMC by calibrated automated thrombography relative to inhibitory polyclonal anti-TFPI antibody; type: cell-free
[2] = target: T1, Tissue factor pathway inhibitor (Homo sapiens, UniProt P10646); assay: Inhibition of TFPI in human plasma with induced factor-8 deficiency assessed as increase in thrombin generation by measuring FEIBA at 10 uM using thrombin-specific fluorogenic substrate Z-Gly-Gly-Arg-AMC by calibrated automated thrombography; type: cell-free
T1 sequence (P10646 whole entry): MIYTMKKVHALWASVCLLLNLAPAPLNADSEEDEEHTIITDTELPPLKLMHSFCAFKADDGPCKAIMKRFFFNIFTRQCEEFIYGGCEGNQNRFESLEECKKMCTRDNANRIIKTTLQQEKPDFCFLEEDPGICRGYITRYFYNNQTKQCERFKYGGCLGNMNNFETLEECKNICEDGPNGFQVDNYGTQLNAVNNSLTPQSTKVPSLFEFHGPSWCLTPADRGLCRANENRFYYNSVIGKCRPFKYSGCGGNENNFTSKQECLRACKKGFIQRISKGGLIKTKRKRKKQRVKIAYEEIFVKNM

[3] = Stability in mouse plasma assessed as parent compound remaining after 24 hrs; type: ADME, cell-free; conditions: read-out: Stability
[4] = Stability in human plasma assessed as parent compound remaining after 24 hrs; type: ADME, cell-free; conditions: read-out: Stability

## CSCC[C@@H]1NC(=O)[C@H](C)NC(=O)[C@@H](NC(=O)[C@H](Cc2cnc[nH]2)NC(=O)[C@H](Cc2c[nH]c3ccccc23)NC(=O)[C@H](CCCCN)NC(=O)[C@H](Cc2ccc(O)cc2)NC(=O)[C@H](Cc2ccc(O)cc2)NC(=O)[C@H](CO)NC(C)=O)CSSC[C@@H](C(=O)N[C@H](C(=O)N[C@@H](Cc2c[nH]c3ccccc23)C(=O)N[C@H](C(=O)N[C@@H](CCCCN)C(=O)N[C@@H](Cc2ccccc2)C(N)=O)C(C)C)C(C)C)NC(=O)[C@H]([C@@H](C)O)NC(=O)[C@H](CCSC)NC(=O)[C@H]([C@@H](C)O)NC(=O)CNC(=O)[C@@H](CCCCN)NC(=O)[C@H](CCSC)NC(=O)[C@H](CC(=O)O)NC(=O)[C@H](CCCNC(=N)N)NC1=O
Callithrix
  inhibition: inactive

## CSCC[C@@H]1NC(=O)[C@H](C)NC(=O)[C@H](NC(=O)[C@H](Cc2cnc[nH]2)NC(=O)[C@H](Cc2c[nH]c3ccccc23)NC(=O)[C@H](CCCCN)NC(=O)[C@H](Cc2ccc(O)cc2)NC(=O)[C@H](Cc2cnc[nH]2)NC(=O)[C@H](CO)NC(C)=O)CSSC[C@@H](C(=O)N[C@H](C(=O)N[C@@H](Cc2c[nH]c3ccccc23)C(=O)N[C@H](C(=O)N[C@@H](CCCCN)C(=O)N[C@@H](Cc2ccccc2)C(N)=O)C(C)C)C(C)C)NC(=O)[C@H](CO)NC(=O)[C@H](CCSC)NC(=O)[C@H]([C@@H](C)O)NC(=O)CNC(=O)[C@H]([C@@H](C)O)NC(=O)[C@H](CCSC)NC(=O)[C@H](CC(=O)O)NC(=O)[C@H](CCCNC(=N)N)NC1=O
[1]
  inhibition: 55.9%
[2]
  pEC50: 8.32

## CC(=O)N[C@@H](Cc1ccccc1)C(=O)N[C@@H](CCC(N)=O)C(=O)N[C@@H](CO)C(=O)N[C@@H](CCCCN)C(=O)N1CCC[C@@H]1C(=O)N[C@@H](CC(N)=O)C(=O)N[C@H](C(=O)N[C@@H](Cc1cnc[nH]1)C(=O)N[C@H](C(=O)N[C@@H](CC(=O)O)C(=O)N[C@H](C)C(=O)N[C@@H](Cc1ccc(O)cc1)C(=O)N[C@@H](Cc1ccccc1)C(=O)N[C@@H](CCC(=O)O)C(=O)N[C@@H](CCCNC(=N)N)C(=O)N[C@@H](CC(C)C)C(=O)NC(C)(C)C(=O)NC(C)(C)C(=O)N[C@@H](CCCCN)C(=O)N[C@@H](CC(C)C)C(N)=O)C(C)(C)C)C(C)C
[3]
  remaining at 24 h: 85.9%
[4]
  remaining at 24 h: 99.2%

## CC(=O)N[C@@H](Cc1ccccc1)C(=O)N[C@@H](CCC(N)=O)C(=O)N[C@@H](CO)C(=O)N[C@@H](CCCCN)C(=O)N1CCC[C@@H]1C(=O)N[C@@H](CC(N)=O)C(=O)N[C@H](C(=O)N[C@@H](Cc1cnc[nH]1)C(=O)N[C@H](C(=O)N1CCC[C@H]1C(=O)N[C@H](C)C(=O)N[C@@H](Cc1ccc(O)cc1)C(=O)N[C@@H](Cc1ccccc1)C(=O)N[C@@H](CCC(=O)O)C(=O)N[C@@H](CCCNC(=N)N)C(=O)N[C@@H](CC(C)C)C(=O)NC(C)(C)C(=O)N[C@@H](C)C(=O)N[C@@H](CCCCN)C(=O)N[C@@H](CC(C)C)C(N)=O)C(C)C)C(C)C
[3]
  remaining at 24 h: 27.3%
[4]
  remaining at 24 h: 99.3%

## CC(=O)N[C@@H](Cc1csc2ccccc12)C(=O)N[C@@H](CCC(N)=O)C(=O)N[C@@H](CO)C(=O)N[C@@H](CCCCN)C(=O)N1CCC[C@@H]1C(=O)N[C@@H](CC(N)=O)C(=O)N[C@H](C(=O)N[C@@H](Cc1cnc[nH]1)C(=O)N[C@H](C(=O)N[C@@H](CC(=O)O)C(=O)NCC(=O)N[C@@H](Cc1ccc(O)cc1)C(=O)N[C@@H](Cc1ccccc1)C(=O)N[C@@H](CCC(=O)O)C(=O)N[C@@H](CCCNC(=N)N)C(=O)N[C@@H](CC(C)C)C(=O)NC(C)(C)C(=O)N[C@@H](C)C(=O)N[C@@H](CCCCN)C(=O)N[C@@H](CC(C)C)C(N)=O)C(C)C)C(C)C
[3]
  remaining at 24 h: 0%
[4]
  remaining at 24 h: 18.6%

## CCCCCCCCCCCCCC(=O)NCCCOCCOCCOCCCNC(=O)CCNCCCC[C@H](NC(=O)[C@H](CC(C)C)NC(=O)[C@H](CCCCN)NC(=O)[C@H](C)NC(=O)C(C)(C)NC(=O)[C@H](CC(C)C)NC(=O)[C@H](CCCNC(=N)N)NC(=O)[C@H](CCC(=O)O)NC(=O)[C@H](Cc1ccccc1)NC(=O)[C@H](Cc1ccc(O)cc1)NC(=O)[C@@H](C)NC(=O)[C@H](CC(=O)O)NC(=O)[C@@H](NC(=O)[C@H](Cc1cnc[nH]1)NC(=O)[C@@H](NC(=O)[C@H](CSCNC(C)=O)NC(=O)[C@H]1CCCN1C(=O)[C@H](CCCCN)NC(=O)[C@H](CO)NC(=O)[C@H](CCC(N)=O)NC(=O)[C@H](Cc1ccccc1)NC(=O)CCCCC)C(C)C)C(C)(C)C)C(N)=O
[3]
  remaining at 24 h: 67.5%
[4]
  remaining at 24 h: 96.5%

## CC(=O)NCSC[C@H](NC(=O)[C@H]1CCCN1C(=O)[C@H](CCCCN)NC(=O)[C@H](CO)NC(=O)[C@H](CCC(N)=O)NC(=O)[C@H](Cc1ccccc1)NC(C)=O)C(=O)N[C@H](C(=O)N[C@@H](Cc1cnc[nH]1)C(=O)N[C@H](C(=O)N[C@@H](CC(=O)O)C(=O)N[C@H](C)C(=O)N[C@@H](Cc1ccc(O)cc1)C(=O)N[C@@H](Cc1ccccc1)C(=O)N[C@@H](CCC(=O)O)C(=O)N[C@@H](CCCNC(=N)N)C(=O)N[C@@H](CC(C)C)C(=O)NC(C)(C)C(=O)N[C@@H](C)C(=O)N[C@@H](CCCCN)C(=O)N[C@@H](CC(C)C)C(N)=O)C(C)(C)C)C(C)C
[3]
  remaining at 24 h: 43%
[4]
  remaining at 24 h: 86.2%

## CC(=O)N[C@@H](Cc1ccccc1)C(=O)N[C@@H](CCC(N)=O)C(=O)N[C@@H](CO)C(=O)N[C@@H](CCCCN)C(=O)N1CCC[C@@H]1C(=O)N[C@@H](CC(N)=O)C(=O)N[C@H](C(=O)N[C@@H](Cc1cnc[nH]1)C(=O)N[C@H](C(=O)N[C@@H](CC(=O)O)C(=O)NCC(=O)N[C@@H](Cc1ccc(O)cc1)C(=O)N[C@@H](Cc1ccccc1)C(=O)N[C@@H](CCC(=O)O)C(=O)N[C@@H](CCCNC(=N)N)C(=O)N[C@@H](CC(C)C)C(=O)NC(C)(C)C(=O)N[C@@H](C)C(=O)N[C@@H](CCCCN)C(=O)N[C@@H](CC(C)C)C(N)=O)C(C)C)C(C)C
[3]
  remaining at 24 h: 5 to 10%
[4]
  remaining at 24 h: 10 to 27%

## CC(=O)N[C@@H](Cc1ccccc1)C(=O)N[C@@H](CCC(N)=O)C(=O)N[C@@H](CO)C(=O)N[C@@H](CCCCN)C(=O)N1CCC[C@@H]1C(=O)N[C@@H](CC(N)=O)C(=O)N[C@H](C(=O)N[C@@H](Cc1cnc[nH]1)C(=O)N[C@H](C(=O)N[C@@H](CC(=O)O)C(=O)N[C@@H]1CSSCC[C@@H](C(=O)N[C@@H](CCCNC(=N)N)C(=O)N[C@@H](CC(C)C)C(=O)N[C@@H](C)C(=O)N[C@@H](C)C(=O)N[C@@H](CCCCN)C(=O)N[C@@H](CC(C)C)C(N)=O)NC(=O)[C@H](Cc2ccccc2)NC(=O)[C@H](Cc2ccc(O)cc2)NC1=O)C(C)(C)C)C(C)C
[3]
  remaining at 24 h: 11.1%
[4]
  remaining at 24 h: 61.5%

## CC(=O)N[C@@H](Cc1ccccc1)C(=O)N[C@@H](CCC(N)=O)C(=O)N[C@@H](CO)C(=O)N[C@@H](CCCCN)C(=O)N1CCC[C@@H]1C(=O)N[C@@H](CC(N)=O)C(=O)N[C@H](C(=O)N[C@@H](Cc1cnc[nH]1)C(=O)N[C@H](C(=O)N[C@@H](CC(=O)O)C(=O)N[C@H](C)C(=O)N[C@@H](Cc1ccc(O)cc1)C(=O)N[C@@H](Cc1ccccc1)C(=O)N[C@@H](CCC(=O)O)C(=O)N[C@@H](CCCNC(=N)N)C(=O)N[C@@H](CC(C)C)C(=O)NC1(C(=O)N[C@@H](C)C(=O)N[C@@H](CCCCN)C(=O)N[C@@H](CC(C)C)C(N)=O)Cc2ccccc2C1)C(C)(C)C)C(C)C
[3]
  remaining at 24 h: 53%
[4]
  remaining at 24 h: 104%

## CCCCCC(=O)N[C@@H](Cc1ccccc1)C(=O)N[C@@H](CCC(N)=O)C(=O)N[C@@H](CO)C(=O)N[C@@H](CCCCN)C(=O)N1CCC[C@@H]1C(=O)N[C@@H](CC(N)=O)C(=O)N[C@H](C(=O)N[C@@H](Cc1cnc[nH]1)C(=O)N[C@H](C(=O)N[C@@H](CC(=O)O)C(=O)N[C@H](C)C(=O)N[C@@H](Cc1ccc(O)cc1)C(=O)N[C@@H](Cc1ccccc1)C(=O)N[C@@H](CCC(=O)O)C(=O)N[C@@H](CCCNC(=N)N)C(=O)N[C@@H](CC(C)C)C(=O)NC(C)(C)C(=O)N[C@@H](C)C(=O)N[C@@H](CCCCN)C(=O)N[C@@H](CC(C)C)C(N)=O)C(C)(C)C)C(C)C
[3]
  remaining at 24 h: 39.9%
[4]
  remaining at 24 h: 97.4%
